This note sets out measurements from patent US20230136297A1, “Methods Of Treating Fabry Disease In Patients Having A Mutation In The GLA Gene” (Amicus Therapeutics, Inc., priority 2020, published 2023).

Holding throughout (assay): α-Gal A activity in lysates of transfected HEK-293 cells ± migalastat (HEK assay)
What all share (assay type): cell-based

Experiment [1] addresses T1, α-Gal A mutant form R196T (Homo sapiens, UniProt P06280, R196T).
T1 construct: expressed in transfected cells; host or cells: HEK-293
T1 sequence (P06280 32-429 R196T): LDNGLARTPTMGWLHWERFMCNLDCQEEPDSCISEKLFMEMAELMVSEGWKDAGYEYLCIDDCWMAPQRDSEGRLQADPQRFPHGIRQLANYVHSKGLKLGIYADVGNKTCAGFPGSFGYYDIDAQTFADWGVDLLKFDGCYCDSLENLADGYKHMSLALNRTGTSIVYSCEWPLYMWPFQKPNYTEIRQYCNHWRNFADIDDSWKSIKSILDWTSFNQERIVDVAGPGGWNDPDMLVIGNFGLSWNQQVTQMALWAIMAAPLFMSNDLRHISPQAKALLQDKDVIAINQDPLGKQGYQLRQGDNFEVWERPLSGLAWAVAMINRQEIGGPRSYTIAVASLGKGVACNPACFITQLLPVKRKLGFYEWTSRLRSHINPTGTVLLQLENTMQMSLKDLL
The gist of the method:
(§1)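 Activity is reported as nmol of free 4-MU released per mg protein per hour (nmol/mg/hr).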

A further experiment has as its target T2, α-Gal A mutant form N53Y (Homo sapiens, UniProt P06280, N53Y).
T2 construct: expressed in transfected cells; host or cells: HEK-293
T2 sequence (P06280 32-429 N53Y): T1 sequence (P06280 32-429 R196T) with N22Y, T165R
The gist of the method:
as §1

The target of experiment [2] is T3, α-Gal A mutant form L394P (Homo sapiens, UniProt P06280, L394P).
T3 construct: expressed in transfected cells; host or cells: HEK-293
T3 sequence (P06280 32-429 L394P): T1 sequence (P06280 32-429 R196T) with T165R, L363P
The gist of the method:
as §1

Experiment [3] has as its target T4, α-Gal A mutant form G360A (Homo sapiens, UniProt P06280, G360A).
T4 construct: expressed in transfected cells; host or cells: HEK-293
T4 sequence (P06280 32-429 G360A): T1 sequence (P06280 32-429 R196T) with T165R, G329A
A digest of the protocol:
as §1

Another experiment has as its target T5, α-Gal A mutant form Y88C (Homo sapiens, UniProt P06280, Y88C).
T5 construct: expressed in transfected cells; host or cells: HEK-293
T5 sequence (P06280 32-429 Y88C): T1 sequence (P06280 32-429 R196T) with Y57C, T165R
The gist of the method: as §1

[4] abbreviates: 10 μM migalastat minus baseline.
[5] abbreviates: HEK-293 lysates, 10 μM migalastat 5 days, mean ± SEM.

Positions count from the first letter of the chain named.

`OC[C@H]1NC[C@H](O)[C@@H](O)[C@H]1O` [migalastat, (2R,3S,4R,5S)-2-(hydroxymethyl) piperdine-3,4,5-triol]: the “Absolute increase (% WT)” value in experiment [1] (setting [4]) is listed as 22.4 % WT; at α-Gal A mutant form N53Y (setting [4]), 34.5 % WT; in experiment [2] (setting [4]), 7.2 % WT; in experiment [3] (setting [4]), 7.5 % WT; at α-Gal A mutant form Y88C (setting [4]), 9.9 % WT. The Relative increase in experiment [1] (10 μM migalastat ÷ baseline) is 1.48; on α-Gal A mutant form N53Y (10 μM migalastat ÷ baseline), 2.04; in experiment [2] (10 μM migalastat ÷ baseline), 1.52; in experiment [3] (10 μM migalastat ÷ baseline), 1.28; at α-Gal A mutant form Y88C (10 μM migalastat ÷ baseline), 3.38. Further, the “10 μM migalastat α-Gal A activity” value in experiment [1] (setting [5]) came out at 26217 ± 1611 nmol/mg/h; at α-Gal A mutant form N53Y (setting [5]) it was 22871 ± 2192 nmol/mg/h; in experiment [2] (setting [5]), 7749 ± 582 nmol/mg/h; in experiment [3] (setting [5]) it was 13443 ± 1048 nmol/mg/h; on α-Gal A mutant form Y88C (setting [5]), 5459 ± 307 nmol/mg/h. The “10 μM migalastat α-Gal A activity (% WT)” value in experiment [1] (setting [5]) came to 69.5 ± 2.6 % WT; on α-Gal A mutant form N53Y (setting [5]), 68.5 ± 2.6 % WT; in experiment [2] (setting [5]), 22.3 ± 2.4 % WT; in experiment [3] (setting [5]), 31.3 ± 2.6 % WT; on α-Gal A mutant form Y88C (setting [5]), 14 ± 1.1 % WT.
